Assay results published in ChEMBL document CHEMBL3784972, “Optimization of N'-(arylsulfonyl)pyrazoline-1-carboxamidines by exploiting a novel interaction site in the 5-HT6 antagonistic binding pocket” (Bioorg Med Chem Lett, 2016).

Experiments:
LLC-PK1 = conditions: pig
MDR = assay: in vitro; conditions: pig, LLC-PK1
in vitro [1] = conditions: Sprague Dawley, rat, hepatocytes
in vitro [2] = conditions: human, hepatocytes
[3] = biological target: T1, 5-hydroxytryptamine receptor 6 (Homo sapiens, UniProt P50406); assay: Displacement of [3H]-N-Methyl-Lysergic acid diethylamide from human 5-HT6 receptor expressed in CHO cells after 30 mins by liquid scintillation counting analysis; format: cell-based
T1 sequence (P50406 whole entry): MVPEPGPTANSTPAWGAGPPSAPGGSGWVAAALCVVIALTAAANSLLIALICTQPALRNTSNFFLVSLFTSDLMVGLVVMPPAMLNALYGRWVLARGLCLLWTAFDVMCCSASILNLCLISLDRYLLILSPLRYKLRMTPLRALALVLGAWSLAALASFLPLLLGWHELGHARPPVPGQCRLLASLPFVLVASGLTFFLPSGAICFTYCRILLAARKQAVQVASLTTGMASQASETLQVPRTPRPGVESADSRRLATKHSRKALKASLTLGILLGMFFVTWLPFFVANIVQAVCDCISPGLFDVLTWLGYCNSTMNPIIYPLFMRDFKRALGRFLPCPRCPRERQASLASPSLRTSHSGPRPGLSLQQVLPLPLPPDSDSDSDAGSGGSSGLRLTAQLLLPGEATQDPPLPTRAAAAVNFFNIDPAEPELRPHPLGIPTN

[4] = biological target: T1, 5-hydroxytryptamine receptor 6; assay: Antagonist activity at human recombinant 5-HT6 receptor expressed in CHO cells assessed as inhibition of agonist induced intracellular calcium levels by aequorin assay; format: functional, cell-based; conditions: read-out: pA2 (converted)
[5] = biological target: Voltage-gated inwardly rectifying potassium channel KCNH2 (Homo sapiens, UniProt Q12809); assay: Inhibition of human ERG
Voltage-gated inwardly rectifying potassium channel KCNH2, sequence (Q12809 whole entry): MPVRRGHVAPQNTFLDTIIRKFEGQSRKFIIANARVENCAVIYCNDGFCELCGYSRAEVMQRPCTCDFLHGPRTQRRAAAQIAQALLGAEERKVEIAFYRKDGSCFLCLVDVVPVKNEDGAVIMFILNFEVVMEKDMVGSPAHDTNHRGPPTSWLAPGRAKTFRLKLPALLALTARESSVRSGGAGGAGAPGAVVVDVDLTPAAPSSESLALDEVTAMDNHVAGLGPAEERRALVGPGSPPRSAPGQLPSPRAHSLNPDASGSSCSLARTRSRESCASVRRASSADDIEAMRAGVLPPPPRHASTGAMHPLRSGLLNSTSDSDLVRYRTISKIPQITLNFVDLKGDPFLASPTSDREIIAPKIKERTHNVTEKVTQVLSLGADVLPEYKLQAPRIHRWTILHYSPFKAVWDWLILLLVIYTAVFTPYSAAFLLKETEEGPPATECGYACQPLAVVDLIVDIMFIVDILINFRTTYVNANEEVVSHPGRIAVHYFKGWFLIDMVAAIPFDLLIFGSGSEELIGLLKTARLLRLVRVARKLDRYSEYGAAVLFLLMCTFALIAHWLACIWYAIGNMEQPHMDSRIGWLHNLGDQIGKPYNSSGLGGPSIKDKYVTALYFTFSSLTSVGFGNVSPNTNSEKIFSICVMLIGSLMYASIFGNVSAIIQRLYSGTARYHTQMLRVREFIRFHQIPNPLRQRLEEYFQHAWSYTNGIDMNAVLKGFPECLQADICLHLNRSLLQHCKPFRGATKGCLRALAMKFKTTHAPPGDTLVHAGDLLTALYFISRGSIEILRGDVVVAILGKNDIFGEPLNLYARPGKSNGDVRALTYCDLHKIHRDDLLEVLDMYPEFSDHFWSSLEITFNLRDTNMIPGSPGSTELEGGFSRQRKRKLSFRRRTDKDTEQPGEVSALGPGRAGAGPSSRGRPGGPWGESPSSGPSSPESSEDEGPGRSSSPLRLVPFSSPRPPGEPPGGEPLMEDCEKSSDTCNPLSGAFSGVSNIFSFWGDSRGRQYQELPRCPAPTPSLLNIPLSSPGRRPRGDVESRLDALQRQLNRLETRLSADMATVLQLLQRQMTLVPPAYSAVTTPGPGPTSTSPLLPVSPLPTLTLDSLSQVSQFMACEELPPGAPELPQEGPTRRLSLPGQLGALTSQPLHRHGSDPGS

Dopamine receptor = assay: Binding affinity to dopamine receptor (unknown origin); format: protein assay, Homo sapiens
Cannabinoid receptor = Cannabinoid receptor (Homo sapiens, UniProt P34972+P21554); assay: Binding affinity to Cannabinoid receptor (unknown origin); format: protein assay
[6] = Binding affinity to Muscarinic receptor (unknown origin); design: species or system Homo sapiens
[7] = Binding affinity to alpha adrenergic receptor (unknown origin); design: species or system Homo sapiens
[8] = Lipophilicity, log D of the compound at pH 7; format: physicochemical; conditions: buffer
[9] = Tmax in rat plasma at 10 mg/kg, po; format: ADME, organism-based
[10] = Tmax in rat CNS at 10 mg/kg, po; format: ADME, organism-based
[11] = Clearance in rat at 10 mg/kg, po; format: ADME, organism-based; conditions: in vivo
[12] = Oral bioavailability in rat at 10 mg/kg; format: ADME, organism-based; conditions: in vivo
[13] = Ratio of drug uptake in rat CNS to plasma at 10 mg/kg, po; format: ADME, organism-based
[14] = Fraction unbound in rat brain at 10 mg/kg, po; format: ADME, organism-based
Rattus norvegicus = assay: Inhibition of cognitive impairment in po dosed rat administered 0.5 hrs before testing; format: functional
[15] = Cmax in rat plasma at 20 mg/kg, po; format: ADME, organism-based; design: dose 20 mg/kg, route oral
[16] = biological target: Serotonin (5-HT) receptor; assay: Binding affinity to 5-HT receptor (unknown origin); format: protein assay, Homo sapiens

| permeability (LLC-PK1; llc-pk1, 3 h, at 1 µg/mL) [%] | efflux ratio at 3 h, 1 ug/ml (MDR) | hepatocyte CLint (in vitro [1]) [µL/min/1e6 cells] | hepatocyte CLint (in vitro [2]) [µL/min/1e6 cells] | Ki [3] [nM] | Kb [4] [nM] | SMILES | also measured |
| --- | --- | --- | --- | --- | --- | --- | --- |
| 0.3 |  | 5 | 1 | 14.2 |  | CCN/C(=N\S(=O)(=O)c1ccc(N)cc1)N1CC2(C=N1)CCNCC2 |  |
| 35.2 | 3.2 |  |  | 97.1 | 126 | CCN/C(=N\S(=O)(=O)c1cccc(OC)c1)N1CC2(C=N1)CCCC2 |  |
| 34.9 | 4.9 |  |  | 251 | > 1000 | CCN/C(=N\S(=O)(=O)c1cccc(Cl)c1)N1N=CCC1c1ccc(O)cc1 (stereo not given) |  |
| 37.7 | 2.8 |  |  | 31.6 | 79.4 | CCN/C(=N\S(=O)(=O)c1ccc2cc[nH]c2c1)N1CC(CC)C=N1 (stereo not given) |  |
| 34.4 | 2 |  |  | 8.7 | 10 | CCN/C(=N\S(=O)(=O)c1ccc(NC(C)=O)c(Cl)c1)N1CC(CC)C=N1 (stereo not given) |  |
|  |  | 99 | 19 | 28.6 | 12.6 | CCN/C(=N\S(=O)(=O)c1ccc2[nH]ncc2c1)N1CC2(C=N1)CCCC2 |  |
| 36.5 | 2.6 |  |  | 25 | 5.01 | CCN/C(=N\S(=O)(=O)c1ccc2c(c1)CCN2)N1CC2(C=N1)CCCC2 |  |
| 31.6 | 3 | 20 | < 1.4 | 20.6 |  | CCN/C(=N\S(=O)(=O)c1ccc(N)cc1)N1CC(C)(C)C=N1 |  |
| 39.4 | 1.3 |  |  | > 1000 | > 1000 | CCN/C(=N\S(=O)(=O)c1ccc(OC)c(Cl)c1)N1CC2(C=N1)CCCC2 |  |
| 41 |  |  |  |  |  | CCN/C(=N\S(=O)(=O)c1cccc(Cl)c1)N1CC(C)(C)C=N1 |  |
| 38.1 |  |  | 27 | 1.8 |  | CCN/C(=N\S(=O)(=O)c1ccc(N)c(Cl)c1)N1CC2(C=N1)CCCC2 |  |
|  |  |  | 1 | 11.6 |  | CCN/C(=N\S(=O)(=O)c1ccc2[nH]ccc2c1)N1CC2(C=N1)CCNCC2 |  |
| 38.5 | 1.6 | 87 | 10 | 1.5 | 0.794 | CCN/C(=N\S(=O)(=O)c1ccc(N)c(Cl)c1)N1CC(CC)C=N1 (stereo not given) |  |
| 35.1 | 2.9 | 33 | 8 |  | 3.98 | CCN/C(=N\S(=O)(=O)c1ccc(N)cc1)N1CC2(C=N1)CCCC2 | IC50 [5]: > 10000 nM; Ki (Dopamine receptor): > 1000 nM; Ki (Cannabinoid receptor): > 1000 nM; Ki [6]: > 1000 nM; Ki [7]: > 1000 nM; logD [8]: 1; Tmax [9]: 30 min; Tmax [10]: 30 min; CL/F [11]: 26 mL/min/kg; bioavailability [12]: 18%; Kp [13]: 0.1; fraction unbound [14]: 0.31; LED (Rattus norvegicus): 20 mg/kg; Cmax [15]: 1100 ng/mL; Ki [16]: > 1000 nM |
|  |  | 87 | 11 | 4.8 | 0.316 | CCN/C(=N\S(=O)(=O)c1ccc2[nH]ccc2c1)N1CC2(C=N1)CCCC2 |  |
| 35.7 | 3.2 |  |  | 97.2 | 100 | CCN/C(=N\S(=O)(=O)c1cccc(N)c1)N1CC2(C=N1)CCCC2 |  |

The next lines start with the molecule.

| SMILES | permeability (LLC-PK1; llc-pk1, 3 h, at 1 µg/mL) [%] | efflux ratio at 3 h, 1 ug/ml (MDR) | hepatocyte CLint (in vitro [1]) [µL/min/1e6 cells] | hepatocyte CLint (in vitro [2]) [µL/min/1e6 cells] | Ki [3] [nM] | Kb [4] [nM] | also measured |
| --- | --- | --- | --- | --- | --- | --- | --- |
| CCN/C(=N\S(=O)(=O)c1ccccc1)N1CC(CC)C=N1 (stereo not given) | 38.2 | 1.1 | 92 | 15 |  |  |  |
| CCN/C(=N\S(=O)(=O)c1ccc(N)cc1)N1CC(CC)C=N1 (stereo not given) | 31.6 | 2.4 | 34 | 4 | 7.2 | 3.98 |  |
| CCN/C(=N\S(=O)(=O)c1cccc(Cl)c1)N1N=CCC1c1ccccc1 (stereo not given) |  |  |  |  |  |  | permeability (LLC-PK1; LLC-PK1, 3 h): 38.5% |
| CCN/C(=N\S(=O)(=O)c1ccc(OC)cc1)N1CC2(C=N1)CCCC2 | 40.4 | 1.2 |  |  | 210 | > 1000 |  |
| CCN/C(=N\S(=O)(=O)c1ccc(O)c(Cl)c1)N1CC2(C=N1)CCCC2 | 20.5 | 2.4 | 66 | 34 | 14.6 | 10 |  |
| CCN/C(=N\S(=O)(=O)c1cc(O)cc(Cl)c1)N1CC2(C=N1)CCCC2 |  |  |  | 107 | 6.1 | 0.0501 |  |
| CCN/C(=N\S(=O)(=O)c1ccc(N(C)C)cc1)N1CC(CC)C=N1 (stereo not given) | 38.2 | 1.4 |  |  | 206 | > 1000 |  |
| CCN/C(=N\S(=O)(=O)c1cc(Cl)cc(OC)c1)N1CC2(C=N1)CCCC2 |  |  |  |  | 47.5 | 63.1 |  |
| CCN/C(=N\S(=O)(=O)c1cccc(O)c1)N1CC2(C=N1)CCCC2 | 40.7 | 1.1 |  |  | 18.5 | 7.94 |  |
| CCN/C(=N\S(=O)(=O)c1ccc2c(c1)NCC2)N1CC(CC)C=N1 (stereo not given) | 36.5 | 1.8 |  |  | 399 | > 1000 |  |
| CCN/C(=N\S(=O)(=O)c1ccc(N)cc1)N1CC2(C=N1)CCCCC2 | 36.5 | 3.3 | 53 | 17 | 7.1 | 5.01 |  |
| CCN/C(=N\S(=O)(=O)c1cccc(Cl)c1)N1N=CCC1c1ccc(N)cc1 (stereo not given) | 36.2 | 2.7 |  |  | > 1000 | 1580 |  |
| CCN/C(=N\S(=O)(=O)c1ccc2[nH]c(C(F)(F)F)cc2c1)N1CC(C)(C)C=N1 |  |  | 87 | 22 | 160 | > 1000 |  |
| CCN/C(=N\S(=O)(=O)c1ccc(O)cc1)N1CC2(C=N1)CCCC2 | 32 | 5.9 | 42 | 21 | 5.8 | 3.16 |  |
